Data taken from patent US20040132108A1, “Screening methods and agents” (priority 2001, published 2004).
“Also recorded” adds a separate entry of the source.

Legend:
full-length p300 protein = molecular target: T1, full-length p300 protein (Homo sapiens, UniProt Q09472); experiment: ELISA binding of full-length p300 to biotinylated peptides; conditions: biotinylated peptide titrated onto streptavidin-coated wells
T1 construct: Full-length p300 and p300(1135-2414) baculovirus were a gift from N. B. La Thangue; made in house; host or cells: Sf9 insect cells (baculovirus)
T1 sequence (Q09472 whole entry): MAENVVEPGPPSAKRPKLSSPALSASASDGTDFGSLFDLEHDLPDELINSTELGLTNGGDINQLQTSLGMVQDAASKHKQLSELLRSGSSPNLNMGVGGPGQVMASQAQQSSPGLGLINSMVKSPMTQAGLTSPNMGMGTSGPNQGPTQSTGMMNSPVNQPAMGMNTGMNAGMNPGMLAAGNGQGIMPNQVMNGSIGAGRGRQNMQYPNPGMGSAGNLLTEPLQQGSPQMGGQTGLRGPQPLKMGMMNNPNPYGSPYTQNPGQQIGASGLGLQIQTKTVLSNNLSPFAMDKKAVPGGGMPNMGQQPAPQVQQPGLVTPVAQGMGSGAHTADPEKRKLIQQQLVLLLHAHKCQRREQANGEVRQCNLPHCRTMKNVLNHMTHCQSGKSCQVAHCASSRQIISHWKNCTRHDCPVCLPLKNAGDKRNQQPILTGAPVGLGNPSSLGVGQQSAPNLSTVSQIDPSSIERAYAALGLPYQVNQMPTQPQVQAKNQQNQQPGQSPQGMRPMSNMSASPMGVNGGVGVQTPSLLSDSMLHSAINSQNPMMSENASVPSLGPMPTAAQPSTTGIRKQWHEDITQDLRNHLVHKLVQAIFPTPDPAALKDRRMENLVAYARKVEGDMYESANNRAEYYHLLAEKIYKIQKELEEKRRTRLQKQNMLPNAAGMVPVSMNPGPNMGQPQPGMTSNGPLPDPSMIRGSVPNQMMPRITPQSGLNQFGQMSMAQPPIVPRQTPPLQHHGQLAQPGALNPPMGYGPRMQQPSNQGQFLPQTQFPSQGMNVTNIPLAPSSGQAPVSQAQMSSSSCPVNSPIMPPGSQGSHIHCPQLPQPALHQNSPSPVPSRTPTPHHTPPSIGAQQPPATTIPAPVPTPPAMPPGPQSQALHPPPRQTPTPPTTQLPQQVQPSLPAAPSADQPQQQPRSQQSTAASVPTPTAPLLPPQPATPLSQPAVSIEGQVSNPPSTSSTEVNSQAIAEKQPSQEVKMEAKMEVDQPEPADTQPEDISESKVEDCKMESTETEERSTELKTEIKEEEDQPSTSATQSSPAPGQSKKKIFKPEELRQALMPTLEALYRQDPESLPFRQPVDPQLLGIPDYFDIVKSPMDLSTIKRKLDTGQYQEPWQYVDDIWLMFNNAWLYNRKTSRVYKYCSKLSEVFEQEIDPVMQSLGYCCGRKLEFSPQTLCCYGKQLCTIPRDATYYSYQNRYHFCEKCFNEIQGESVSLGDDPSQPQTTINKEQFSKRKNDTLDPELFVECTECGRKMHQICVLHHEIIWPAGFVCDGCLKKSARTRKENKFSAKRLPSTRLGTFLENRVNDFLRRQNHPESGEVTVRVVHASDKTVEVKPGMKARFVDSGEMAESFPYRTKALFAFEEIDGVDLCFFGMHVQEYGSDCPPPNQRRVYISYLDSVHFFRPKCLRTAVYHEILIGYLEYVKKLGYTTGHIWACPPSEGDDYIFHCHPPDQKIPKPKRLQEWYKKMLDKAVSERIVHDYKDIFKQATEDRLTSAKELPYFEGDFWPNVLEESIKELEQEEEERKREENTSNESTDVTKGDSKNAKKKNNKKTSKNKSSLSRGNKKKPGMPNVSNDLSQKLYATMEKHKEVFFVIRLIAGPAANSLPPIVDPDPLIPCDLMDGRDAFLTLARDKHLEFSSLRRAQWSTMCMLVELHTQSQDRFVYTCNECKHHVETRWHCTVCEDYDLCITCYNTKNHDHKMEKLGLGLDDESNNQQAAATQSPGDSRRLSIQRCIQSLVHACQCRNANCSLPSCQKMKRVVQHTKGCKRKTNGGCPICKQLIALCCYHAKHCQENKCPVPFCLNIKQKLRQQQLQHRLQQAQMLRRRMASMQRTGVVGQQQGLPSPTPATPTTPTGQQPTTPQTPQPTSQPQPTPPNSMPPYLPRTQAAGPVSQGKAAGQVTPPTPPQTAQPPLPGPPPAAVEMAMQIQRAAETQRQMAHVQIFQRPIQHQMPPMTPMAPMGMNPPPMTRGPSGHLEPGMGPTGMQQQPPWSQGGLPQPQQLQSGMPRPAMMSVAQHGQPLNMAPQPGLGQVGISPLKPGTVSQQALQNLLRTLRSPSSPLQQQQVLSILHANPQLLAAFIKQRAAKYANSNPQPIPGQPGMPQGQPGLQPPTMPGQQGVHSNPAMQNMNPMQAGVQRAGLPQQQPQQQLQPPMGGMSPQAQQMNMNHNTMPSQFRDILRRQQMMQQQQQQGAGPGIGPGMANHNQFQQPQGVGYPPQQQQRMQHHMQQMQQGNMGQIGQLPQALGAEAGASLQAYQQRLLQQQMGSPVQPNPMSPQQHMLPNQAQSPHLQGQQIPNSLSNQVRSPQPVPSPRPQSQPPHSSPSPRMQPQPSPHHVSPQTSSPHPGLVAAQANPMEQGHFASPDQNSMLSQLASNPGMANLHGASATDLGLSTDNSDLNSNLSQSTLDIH
Procedure: Microtitre wells were coated with 100 ng of streptavidin and incubated overnight at room temperature. To prevent non-specific binding, 100 μl of 3% BSA, PBS, 01% Tween 20 was added and incubated for 1 hour at 4° C. Wells were washed 3 times with 180 μl PBSM 0.1% Tween 20 and biotinylated peptides, resuspended in 50 μl/well of 3% BSA, PBS, 0.1% Tween 20/NaF/Beta-phosphoglycerate, were incubated for 1 hour at 4° C. Non-specific binding sites were blocked by adding 180 μl 5% milk powder, PBS, 0.1 Tween 20/NaF/Beta-phosphoglycerate for 30 minutes at 4° C. before adding p300 resuspended in 50 ml/well of Sf9LB. Where plant extract was added to p300, the reaction was incubated for 30 minutes before adding to wells. The reaction was the incubated for 1 hour at 4° C. and then the wells were rigorously washed 3 times with 180 μl PBS, 0.1%, Tween 20 before incubating for 1 hour with specific antibodies in 50 μl/well 5% milk powder, PBS, 0.1% Tween 20/NaF/Beta-phosphoglycerate. Wells were given another 3 washes with PBS, 0.1%, Tween 20 to remove unbound antibody and specific binding was detected with secondary antibody (anti-mouse or anti-rabbit) conjugated to horse radish peroxidase (HRP). The binding was detected by ECL and quantified using a luminometer (Fluoroskan Ascent FL).
Plates were rigorously washed 3 times with PBST20 (0.1% v/v) to reduce the non-specific binding. Primary antibodies anti-p300(N-15) (Santa Cruz Biotechnology Inc.), anti-FLAG (Sigma) and anti-Mdm2 (2A10) (Movarian Biotechnologies) were used and the appropriate secondary antibody cross-linked to HRP. The signal detected by Enhanced Chemoluminescence was developed using Fluoroskan Ascent FL.

[1] = tested on: p300 induction of p53-dependent gene expression from the p21 promoter; experiment: p53/p300 co-transfected Saos-2 cells, p21-Luc reporter; format: cell-based; conditions: for p53-p300 co-stimulated transactivation, p21 promoter: Saos-2 cells co-transfected with p53 and p300, increasing EGFP construct; for p53 protein levels (immunoblot): Saos-2 cells, 1 μg EGFP construct, relative to EGFP-NS control
Procedure: FIG. 3: In vivo inhibition of ectopically expressed p53 from the p21 promoter by phospho-peptide mimetic fusion proteins. (A) Stimulation of p53 activity by cotransfection with p300. Saos-2 cells were transiently co-transfected with 1 μg of pCMV-p53, 2 μg p21-Luc, 1 μg pCMVβ-Gal and increasing amounts of pCMV-βp300. The cells were harvested 30 hours post-transfection and the relative activity is expressed as a ratio of luciferase activity to β-Gal activity (Δ negative control, 0 ng, 1 μg, 2 μg and 5 μg). (B) EGFP-S20D peptide ([…] LPENN) inhibits p300 induction of p53-dependent gene expression. Saos-2 cells were transiently co-transfected with 1 μg pCMV-p53, 2 μg p21-Luc, 5 μg pCMVβp300, 1 μg of pCMVβ-Gal and increasing amounts of EGFP-constructs as indicated. The cells were processed as described in the legend of FIG. 3A (▴ control, control, 1 μg, 2 μg and 5 μg). (C) Immunoblots of p53 and EGFP-fusion proteins in transfected Saos-2 cells. Lysates from transfected Saos-2 cells [as described in FIG. 3B] were normalized for protein content by Bradford and loading for immunoblots was confirmed by Red Ponceau staining. The constructs transfected are highlighted by the legend above the Figure (increasing amounts of EGFP fused to NS, BOX-I, S15D, T18D, and S20D BOX-I domain peptides) and are described below the Figure as a “+”. The levels of p53, EGFP, and p21 proteins are in the top, middle, or bottom panel, respectively. p53-dependent activity (in RLU's) from FIG. 3B is listed underneath the immunoblots for direct comparison of p53 activity to p53 protein and EGFP protein levels.
(§1) A final model used to examine whether the phospho-peptide mimetic peptides inhibit p53 activity involved the use of the p53-null cell line Saos-2 co-transfected with p300, p53, and the indicated reporter or expression vectors (FIG. 3). Transient co-transfection of increasing amounts of p300 with p53 into Saos-2 cells lead to maximal stimulation of p53-dependent gene expression from the p21 promoter (FIG. 3A) or the bax promoter (FIG. 5A).
A375 and Saos-2 cells were maintained in DMEM (Gibco BRL) supplemented with 10% FBS and incubated at 37° C. with an atmosphere of 10% CO2. Transient transfections and ELISAs were carried out as previously described (Dornan and Hupp 2001). Full-length p300 and His-p300 infected Sf9 cells were harvested 72 hours post-infection as described previously (Shikama, Lee et al. 1999; Dornan and Hupp 2001). Sf9 expressed wtp53 and p53ΔProAE tetramers were purified by heparin-sepharose chromatography as described previously (Hupp and Lane 1994). Transfected lysates were run on a 12% SDS-PAGE and transferred to nitrocellulose membrane and even protein loading confirmed by Ponceau S (Sigma) staining. Primary antibodies anti-p53 (DO-1), anti-p21 (Ab-1) (Calbiochem), anti-Bax (N-20) (Santa Cruz Biotechnology Inc.), anti-EGFP (Clontech) were used and the appropriate secondary antibody conjugated to HRP. The signal detected by Enhanced Chemo-luminescence was developed using autoradiography film (Amersham).

HCT116 (p53^+/+) cells = experiment: Cell cycle profile by FACS in HCT116 p53+/+ cells; format: cell-based; conditions: 5 μg EGFP construct, CD20-selected cells, propidium iodide
Excerpt: To address this issue, we co-transfected EGFP-NS, EGFP-BOXI, EGFP-S20D or EGFP-PRO with pCMV-CD20 cell surface marker into HCT116 (p53^+/+) cells, selected the transfected population using a FITC-conjugated CD20 antibody, sorted them by FACS and the resultant cell cycle profile of the transfected population determined by propidium iodide staining of DNA. The amount of EGFP-peptide construct and levels of EGFP protein produced were identical to those used in transcription assays (FIG. 10 and data not shown), so a direct correlation can be made between the reduction in transcription by the EGFP-S20D or EGFP-PRO peptides and changes in cell-cycle parameters. […] The MDM2-binding peptides have been well-documented to have a positive affect on […] dependent transcription (Bottger, Bottger et al. 1996).
(§2) To select the transfected cell population, cells were co-transfected with 3 μg pCMV-CD20 and incubated for 24 hours before washing and detaching cells in PBS/5 mM EDTA. Cells were then harvested and resuspended in serum free media with FITC-conjugated anti-CD20 (Becton Dickinson) and incubating for 30 minutes on ice. Cells were then washed twice with PBS/1% FBS and resuspended in 100 μl PBS before adding 900 μl ice-cold ethanol dropwise. After incubation at 4° C. for >2 hours cells were stained with Pi (40 μg/ml) and treated with RNAse (100 μg/ml). Transfected cells were gated using the FL1 channel and PI staining detected with the FL2 channel and the resultant cell cycle profiles of 2000 cells were analysed using a FACScan and CellQuest software (Becton Dickinson).

HCT116 p53^−/− cells = experiment: Cell cycle profile by FACS in HCT116 p53-/- cells; format: cell-based; conditions: 5 μg EGFP construct, CD20-selected cells, propidium iodide
Procedure: With the arrest in G2/M observed in p53^+/+ cells using the PRO and S20D fusion peptides, it was determined whether the peptides would have any effect on the cell cycle profile in a p53^−/− cell line. Using the same parameters as in the p53^+/+ cell line, the effects on the cell cycle were determined (FIGS. 12B and 12D).
as §2

[2] = tested on: p53-dependent transactivation of the p21 promoter; experiment: p21-Luciferase reporter of endogenous p53-dependent transcription in A375 cells; format: cell-based; conditions: for basal p53-dependent transactivation of the p21 promoter: cycling A375 cells, transient transfection, p21-Luc / β-Gal
Procedure: Proliferating A375 cells were transiently co-transfected with EGFP-NS, EGFP-BOX-I, EGFP-S15D, EGFP-T18D or EGFP-S20D and control or p21-Luciferase reporter constructs. Changes in the basal p53-dependent transcription activity was quantitated 24 hours post-transfection.
A375 and HCT116 cells both containing a wild-type p53 pathway were maintained in DMEM (Gibco BRL) supplemented with 10% FBS and incubated at 37° C. with an atmosphere of 10% CO2. For transient transfections, 3×10^5 cells were plated out in 6-well dishes and transfected with LipofectAMINE (Gibco BRL). The exact quantity of DNA transfected is indicated in each experiment and where necessary, carrier DNA was incorporated to keep the same quantity of DNA consistent in each transfecton. To monitor transfection efficiency, pCMV-βGal was included in each transfection. Unless otherwise stated, cells were harvested 24 hours post-transfection and lysed in Reporter Lysis Buffer and the corresponding luciferase and β-Gal assay carried out according to the manufacturers protocol (Promega, UK).

[3] = tested on: p300 induction of p53-dependent gene expression from the bax promoter; experiment: p53/p300 co-transfected Saos-2 cells, bax-Luc reporter; format: cell-based; conditions: Saos-2 cells co-transfected with p53 and p300, increasing EGFP construct
Procedure: FIG. 5: In vivo inhibition of ectopically expressed p53 activity from the bax promoter by phospho-peptide mimetic fusion proteins. (A) Stimulation of p53 activity by cotransfection with p300. Saos-2 cells were transiently co-transfected with 1 μg of pCMV-p53, 2 μg bax-Luc, 1 μg pCMVβ-Gal and increasing amounts of pCMV-βp300. The cells were harvested 30 hours post-transfection and the relative activity is expressed as a ratio of luciferase activity to β-Gal activity. (B) EGFP-S20D peptide fusion protein inhibits p300 induction of p53-dependent gene expression. Saos-2 cells were transiently co-transfected with 1 μg pCMV-p53, 2 μg bax-Luc, 5 μg pCMVβp300, 1 μg of pCMVβ-Gal and increasing amounts of EGFP-S20D or EGFP-control. Cells were harvested 30 hours post-transfection and relative activity is expressed as a ratio of luciferase activity to β-Gal activity ( ? control, 0 μg, 1 μg, 2 μg and 5 μg).
as §1
A375 and Saos-2 cells were maintained in DMEM (Gibco BRL) supplemented with 10% FBS and incubated at 37° C. with an atmosphere of 10% CO2. Transient transfections and ELISAs were carried out as previously described (Dornan and Hupp 2001). Full-length p300 and His-p300 infected Sf9 cells were harvested 72 hours post-infection as described previously (Shikama, Lee et al. 1999; Dornan and Hupp 2001). Sf9 expressed wtp53 and p53ΔProAE tetramers were purified by heparin-sepharose chromatography as described previously (Hupp and Lane 1994). […] The signal detected by Enhanced Chemo-luminescence was developed using autoradiography film (Amersham).

Substance: C-terminal end of the SMAD4 polyproline domain: peptide from the Smad-4 proline-rich region (aa 275-303), C-terminal end (PYTPNLPHHQNGHLQHHPPMPPHPGHYWP; UniProt Q13485 275-303, looked up, fragment)
- binding of full-length p300 protein to the peptide (RLU) (full-length p300 protein): relatively high affinity

Substance: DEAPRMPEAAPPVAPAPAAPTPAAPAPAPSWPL [EGFP-PRO]
- p53-p300 co-stimulated transactivation, p21 promoter [1]: striking inhibition of p53-p300 co-stimulation
- cell cycle effect (G2/M arrest) (HCT116 (p53^+/+) cells): more striking arrest in G2/M phase
- cell cycle effect (G2/M arrest) (HCT116 p53^−/− cells): similarly induced a G2/M arrest
- basal p53-dependent transactivation of the p21 promoter [2]: inhibit endogenous p53-dependent transcription compared to the EGFP-NS peptide and with the same potency as the EGFP-S20D peptide
- p53-p300 co-stimulated transactivation, bax promoter [3]: striking inhibition of p53-p300 co-stimulation

Substance: EPPLSQETFDDLWKL LPENN [EGFP-S20D]
- p53-p300 co-stimulated transactivation, p21 promoter [1]: inhibited synergism between p53 and p300; also recorded: inhibits transactivation
- p53 protein levels (immunoblot) [1]: increased
- cell cycle effect (G2/M arrest) (HCT116 (p53^+/+) cells): induced a prominent G2/M arrest
- cell cycle effect (G2/M arrest) (HCT116 p53^−/− cells): failed to elicit a defined G2/M arrest
- basal p53-dependent transactivation of the p21 promoter [2]: inhibiting p53 activity to the highest degree
- p53-p300 co-stimulated transactivation, bax promoter [3]: inhibited synergism between p53 and p300; also recorded: inhibits transactivation

Substance: EPPLSQETFSDLWKLLPENN [EGFP-BOX-I]
- p53-p300 co-stimulated transactivation, p21 promoter [1]: stimulated p53 activity
- p53 protein levels (immunoblot) [1]: increased
- cell cycle effect (G2/M arrest) (HCT116 (p53^+/+) cells): relatively insignificant role in altering cell-cycle parameters
- p53-dependent gene expression in irradiated cells ([2]; A375 cells, ionizing radiation (5 Gy) or UV-C (20 J/m^2), p21-Luc): stimulated p53 activity in the irradiated cell
- basal p53-dependent transactivation of the p21 promoter [2]: expected increase in p53-dependent transactivation
- p53-p300 co-stimulated transactivation, bax promoter [3]: stimulated p53 activity

Substance: UBF1 (231-246): consensus peptide from UBF1, amino acids 231-246 (GKQWSQLSDKKRLKWI; UniProt P17480 231-246, looked up, fragment)
- binding of full-length p300 protein to the peptide (RLU) (full-length p300 protein): did not bind p300

Substance: UBF1 (321-336): consensus peptide from UBF1, amino acids 321-336 (STERMVLCSQQWKLLS; UniProt P17480 321-336, looked up, fragment)
- binding of full-length p300 protein to the peptide (RLU) (full-length p300 protein): affinity slightly less than the p53 BOX-I-Ser^20 phospho-peptide

Substance: p53 polyproline peptide (83-102): p53 polyproline peptide containing amino acids 83-102 (AAPAPAPSWPLSSSVPSQKT; UniProt P04637 83-102, looked up, fragment)
- binding of full-length p300 protein to the peptide (RLU) (full-length p300 protein): high affinity

Substance: p53PRO (69-88): p53 polyproline peptide amino acids 69-88 (AAPPVAPAPAAPTPAAPAPA; UniProt P04637 69-88, looked up, fragment)
- binding of full-length p300 protein to the peptide (RLU) (full-length p300 protein): did not restore binding activity
